Test results as given in ChEMBL document CHEMBL4507274 (2021).

Columns and labels:
[1] = target: Mitogen-activated protein kinase 14 (Homo sapiens) (UniProt Q16539); assay: SAPK2a (h) Upstate kinase activity assay; details: Compound concentration 10.0 uM
[2] = target: Tyrosine-protein kinase receptor UFO (Homo sapiens) (UniProt P30530); assay: Axl (h) Upstate kinase activity assay; details: Compound concentration 10.0 uM
[3] = target: Tyrosine-protein kinase Fgr (Homo sapiens) (UniProt P09769); assay: Fgr (h) Upstate kinase activity assay; details: Compound concentration 10.0 uM
[4] = target: RAC-gamma serine/threonine-protein kinase (Homo sapiens) (UniProt Q9Y243); assay: PKBγgamma(h) Upstate kinase activity assay; details: Compound concentration 10.0 uM
Chain of RAC-gamma serine/threonine-protein kinase (Homo sapiens) (Q9Y243 whole entry): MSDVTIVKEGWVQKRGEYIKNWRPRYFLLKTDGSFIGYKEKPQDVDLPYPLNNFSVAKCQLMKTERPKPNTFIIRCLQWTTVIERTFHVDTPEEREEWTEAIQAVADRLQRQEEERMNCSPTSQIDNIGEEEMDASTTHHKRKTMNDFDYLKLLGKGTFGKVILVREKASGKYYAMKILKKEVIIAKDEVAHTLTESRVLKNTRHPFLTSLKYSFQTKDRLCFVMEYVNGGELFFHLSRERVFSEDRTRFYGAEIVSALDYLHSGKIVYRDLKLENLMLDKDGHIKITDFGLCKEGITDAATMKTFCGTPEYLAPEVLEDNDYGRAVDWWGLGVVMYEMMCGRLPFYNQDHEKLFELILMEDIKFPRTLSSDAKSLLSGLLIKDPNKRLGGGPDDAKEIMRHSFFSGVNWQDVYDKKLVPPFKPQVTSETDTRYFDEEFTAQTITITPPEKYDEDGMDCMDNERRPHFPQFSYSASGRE

[5] = target: T1, Calcium/calmodulin-dependent protein kinase type IV (Homo sapiens) (UniProt Q16566); assay: CaMKIV (h) Upstate kinase activity assay; details: Compound concentration 10.0 uM
T1 sequence (whole entry): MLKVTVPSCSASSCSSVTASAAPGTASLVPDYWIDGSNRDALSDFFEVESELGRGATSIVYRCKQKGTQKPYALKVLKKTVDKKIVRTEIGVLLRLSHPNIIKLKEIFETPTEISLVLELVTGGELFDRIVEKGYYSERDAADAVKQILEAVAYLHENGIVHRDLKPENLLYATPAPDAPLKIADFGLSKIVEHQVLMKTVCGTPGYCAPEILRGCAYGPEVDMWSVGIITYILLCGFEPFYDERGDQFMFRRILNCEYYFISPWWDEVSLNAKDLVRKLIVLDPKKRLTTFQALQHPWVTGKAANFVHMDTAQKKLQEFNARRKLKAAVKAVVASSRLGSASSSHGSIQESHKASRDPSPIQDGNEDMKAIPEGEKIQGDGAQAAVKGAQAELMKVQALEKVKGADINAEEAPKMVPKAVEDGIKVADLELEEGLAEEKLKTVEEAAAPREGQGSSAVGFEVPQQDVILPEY

[6] = target: Macrophage colony-stimulating factor 1 receptor (Homo sapiens) (UniProt P07333); assay: Fms (h) Upstate kinase activity assay; details: Compound concentration 10.0 uM
[7] = target: Glycogen synthase kinase-3 alpha (Homo sapiens) (UniProt P49840); assay: GSK3alpha (h) Upstate kinase activity assay; details: Compound concentration 10.0 uM
Chain of Glycogen synthase kinase-3 alpha (Homo sapiens) (P49840 2-483 limits assumed): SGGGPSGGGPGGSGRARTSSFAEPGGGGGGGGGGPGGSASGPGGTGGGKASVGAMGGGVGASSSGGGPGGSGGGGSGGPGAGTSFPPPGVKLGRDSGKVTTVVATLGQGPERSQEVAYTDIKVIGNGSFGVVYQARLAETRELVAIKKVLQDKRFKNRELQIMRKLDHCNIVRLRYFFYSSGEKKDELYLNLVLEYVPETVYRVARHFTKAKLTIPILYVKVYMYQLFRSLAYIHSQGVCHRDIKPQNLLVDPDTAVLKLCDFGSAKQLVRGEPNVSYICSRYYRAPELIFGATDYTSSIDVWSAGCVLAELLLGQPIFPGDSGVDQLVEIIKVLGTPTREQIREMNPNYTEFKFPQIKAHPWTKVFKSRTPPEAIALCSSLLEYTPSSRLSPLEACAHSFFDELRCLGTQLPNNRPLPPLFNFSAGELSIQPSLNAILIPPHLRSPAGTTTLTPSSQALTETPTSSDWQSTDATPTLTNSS

[8] = target: Protein kinase C theta type (Homo sapiens) (UniProt Q04759); assay: PKCtheta (h) Upstate kinase activity assay; details: Compound concentration 10.0 uM
[9] = target: RAC-beta serine/threonine-protein kinase (Homo sapiens) (UniProt P31751); assay: PKBbeta (h) Upstate kinase activity assay; details: Compound concentration 10.0 uM
Chain of RAC-beta serine/threonine-protein kinase (Homo sapiens) (P31751 whole entry): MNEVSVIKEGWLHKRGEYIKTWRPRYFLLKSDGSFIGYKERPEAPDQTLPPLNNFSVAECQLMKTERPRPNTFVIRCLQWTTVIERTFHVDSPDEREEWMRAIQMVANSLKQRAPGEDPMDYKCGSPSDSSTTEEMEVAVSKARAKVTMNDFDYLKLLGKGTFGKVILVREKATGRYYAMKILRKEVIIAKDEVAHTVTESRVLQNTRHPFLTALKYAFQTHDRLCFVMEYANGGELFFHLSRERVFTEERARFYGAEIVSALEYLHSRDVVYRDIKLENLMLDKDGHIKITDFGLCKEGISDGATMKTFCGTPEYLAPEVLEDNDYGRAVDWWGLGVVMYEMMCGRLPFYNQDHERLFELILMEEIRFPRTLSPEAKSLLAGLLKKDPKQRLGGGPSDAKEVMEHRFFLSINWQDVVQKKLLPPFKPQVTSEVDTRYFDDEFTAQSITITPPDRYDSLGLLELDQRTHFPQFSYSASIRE

[10] = target: Mitogen-activated protein kinase 10 (Homo sapiens) (UniProt P53779); assay: JNK3 (h) Upstate kinase activity assay; details: Compound concentration 10.0 uM
Chain of Mitogen-activated protein kinase 10 (Homo sapiens) (P53779 whole entry): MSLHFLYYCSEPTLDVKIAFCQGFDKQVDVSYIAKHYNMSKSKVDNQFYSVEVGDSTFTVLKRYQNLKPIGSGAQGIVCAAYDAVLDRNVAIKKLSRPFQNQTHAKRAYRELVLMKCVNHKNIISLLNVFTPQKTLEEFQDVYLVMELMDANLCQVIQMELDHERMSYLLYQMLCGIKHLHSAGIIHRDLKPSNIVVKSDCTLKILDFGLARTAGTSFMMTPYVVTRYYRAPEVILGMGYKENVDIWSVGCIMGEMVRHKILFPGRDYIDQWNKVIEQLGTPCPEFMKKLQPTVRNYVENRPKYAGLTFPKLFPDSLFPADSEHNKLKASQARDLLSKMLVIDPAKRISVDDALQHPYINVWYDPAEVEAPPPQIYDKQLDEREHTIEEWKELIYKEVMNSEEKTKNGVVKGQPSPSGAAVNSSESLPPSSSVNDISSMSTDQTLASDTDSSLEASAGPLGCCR

[11] = target: Proto-oncogene tyrosine-protein kinase Src (Homo sapiens) (UniProt P12931); assay: cSRC (h) Upstate kinase activity assay; details: Compound concentration 10.0 uM
[12] = target: MAP kinase-activated protein kinase 2 (Homo sapiens) (UniProt P49137); assay: MAPKAP-K2 (h) Upstate kinase activity assay; details: Compound concentration 10.0 uM
Chain of MAP kinase-activated protein kinase 2 (Homo sapiens) (P49137 whole entry, looked up): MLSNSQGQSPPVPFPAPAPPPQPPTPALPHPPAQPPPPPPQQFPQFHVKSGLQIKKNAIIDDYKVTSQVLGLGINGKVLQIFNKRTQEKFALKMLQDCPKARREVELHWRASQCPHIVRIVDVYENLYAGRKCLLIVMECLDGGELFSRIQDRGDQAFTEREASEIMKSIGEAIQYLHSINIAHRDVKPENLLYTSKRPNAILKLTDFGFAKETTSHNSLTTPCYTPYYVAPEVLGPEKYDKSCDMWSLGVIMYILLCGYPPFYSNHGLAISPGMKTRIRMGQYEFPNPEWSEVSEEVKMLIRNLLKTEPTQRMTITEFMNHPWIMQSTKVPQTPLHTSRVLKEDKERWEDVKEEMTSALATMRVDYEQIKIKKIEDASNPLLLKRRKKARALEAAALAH

[13] = target: RAC-alpha serine/threonine-protein kinase (Homo sapiens) (UniProt P31749); assay: PKBalpha (h) Upstate kinase activity assay; details: Compound concentration 10.0 uM
Chain of RAC-alpha serine/threonine-protein kinase (Homo sapiens) (P31749 whole entry): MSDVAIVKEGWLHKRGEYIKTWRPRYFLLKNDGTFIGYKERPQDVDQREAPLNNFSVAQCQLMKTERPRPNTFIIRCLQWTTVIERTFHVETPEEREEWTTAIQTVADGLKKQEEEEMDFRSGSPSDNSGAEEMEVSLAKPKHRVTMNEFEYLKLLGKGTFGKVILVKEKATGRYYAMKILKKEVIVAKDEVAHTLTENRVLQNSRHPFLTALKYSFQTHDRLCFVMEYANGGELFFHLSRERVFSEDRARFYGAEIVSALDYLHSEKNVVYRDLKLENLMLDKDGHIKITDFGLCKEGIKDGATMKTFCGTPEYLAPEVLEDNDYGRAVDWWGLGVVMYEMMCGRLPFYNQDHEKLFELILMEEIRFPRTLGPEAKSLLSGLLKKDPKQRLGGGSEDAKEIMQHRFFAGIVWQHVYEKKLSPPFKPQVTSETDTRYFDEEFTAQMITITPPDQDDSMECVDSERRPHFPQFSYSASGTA

[14] = target: T2, Tyrosine-protein kinase receptor TYRO3 (Homo sapiens) (UniProt Q06418); assay: Rse (h) Upstate kinase activity assay; details: Compound concentration 10.0 uM
T2 sequence (whole entry): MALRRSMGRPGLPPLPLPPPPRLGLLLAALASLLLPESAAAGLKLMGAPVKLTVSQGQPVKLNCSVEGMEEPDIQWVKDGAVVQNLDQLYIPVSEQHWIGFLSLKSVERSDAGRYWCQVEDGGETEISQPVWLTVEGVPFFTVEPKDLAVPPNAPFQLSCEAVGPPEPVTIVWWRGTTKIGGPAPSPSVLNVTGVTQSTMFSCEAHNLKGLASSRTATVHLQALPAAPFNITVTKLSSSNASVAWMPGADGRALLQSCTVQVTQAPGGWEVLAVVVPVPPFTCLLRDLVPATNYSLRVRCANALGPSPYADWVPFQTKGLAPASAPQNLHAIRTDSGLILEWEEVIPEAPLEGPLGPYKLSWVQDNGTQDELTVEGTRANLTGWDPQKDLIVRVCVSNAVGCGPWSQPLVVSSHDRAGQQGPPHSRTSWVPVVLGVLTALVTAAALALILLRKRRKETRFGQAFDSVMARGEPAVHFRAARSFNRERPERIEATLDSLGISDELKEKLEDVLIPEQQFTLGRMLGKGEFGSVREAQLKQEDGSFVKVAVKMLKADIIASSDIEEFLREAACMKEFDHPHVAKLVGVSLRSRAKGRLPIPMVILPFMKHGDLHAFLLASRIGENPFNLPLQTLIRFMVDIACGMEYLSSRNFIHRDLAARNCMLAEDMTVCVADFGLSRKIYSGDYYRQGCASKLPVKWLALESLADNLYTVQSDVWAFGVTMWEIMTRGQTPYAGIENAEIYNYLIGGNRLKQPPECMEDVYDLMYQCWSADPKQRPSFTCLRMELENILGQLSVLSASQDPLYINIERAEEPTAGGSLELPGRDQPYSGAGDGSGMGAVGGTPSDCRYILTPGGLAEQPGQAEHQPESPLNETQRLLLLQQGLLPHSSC

[15] = target: Protein kinase C beta type (Homo sapiens) (UniProt P05771); assay: PKCBI (h) Upstate kinase activity assay; details: Compound concentration 10.0 uM
Chain of Protein kinase C beta type (Homo sapiens) (P05771 2-671 limits assumed): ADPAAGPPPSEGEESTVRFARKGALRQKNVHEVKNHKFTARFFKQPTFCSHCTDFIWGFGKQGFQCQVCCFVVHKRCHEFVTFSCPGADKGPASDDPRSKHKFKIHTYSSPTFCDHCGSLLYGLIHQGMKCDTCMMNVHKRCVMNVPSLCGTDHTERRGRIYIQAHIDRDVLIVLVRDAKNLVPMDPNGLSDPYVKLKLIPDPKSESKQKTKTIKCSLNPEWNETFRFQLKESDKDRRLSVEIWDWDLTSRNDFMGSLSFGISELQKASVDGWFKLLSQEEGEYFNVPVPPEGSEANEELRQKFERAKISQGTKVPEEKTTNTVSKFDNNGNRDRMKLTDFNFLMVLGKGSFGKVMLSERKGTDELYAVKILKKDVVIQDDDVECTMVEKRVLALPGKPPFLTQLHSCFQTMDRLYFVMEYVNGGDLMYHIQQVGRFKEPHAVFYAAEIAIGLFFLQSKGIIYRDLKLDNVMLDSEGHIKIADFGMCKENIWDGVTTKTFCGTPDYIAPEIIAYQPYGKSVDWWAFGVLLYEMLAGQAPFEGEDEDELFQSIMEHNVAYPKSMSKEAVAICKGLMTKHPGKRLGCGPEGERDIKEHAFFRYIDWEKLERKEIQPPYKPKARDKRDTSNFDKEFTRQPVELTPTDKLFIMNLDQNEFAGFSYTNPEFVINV

[16] = target: Serine/threonine-protein kinase PAK 2 (Homo sapiens) (UniProt Q13177); assay: PAK2 (h) Upstate kinase activity assay; details: Compound concentration 10.0 uM
[17] = target: T3, Tyrosine-protein kinase ZAP-70 (Homo sapiens) (UniProt P43403); assay: ZAP-70 (h) Upstate kinase activity assay; details: Compound concentration 10.0 uM
T3 sequence (whole entry): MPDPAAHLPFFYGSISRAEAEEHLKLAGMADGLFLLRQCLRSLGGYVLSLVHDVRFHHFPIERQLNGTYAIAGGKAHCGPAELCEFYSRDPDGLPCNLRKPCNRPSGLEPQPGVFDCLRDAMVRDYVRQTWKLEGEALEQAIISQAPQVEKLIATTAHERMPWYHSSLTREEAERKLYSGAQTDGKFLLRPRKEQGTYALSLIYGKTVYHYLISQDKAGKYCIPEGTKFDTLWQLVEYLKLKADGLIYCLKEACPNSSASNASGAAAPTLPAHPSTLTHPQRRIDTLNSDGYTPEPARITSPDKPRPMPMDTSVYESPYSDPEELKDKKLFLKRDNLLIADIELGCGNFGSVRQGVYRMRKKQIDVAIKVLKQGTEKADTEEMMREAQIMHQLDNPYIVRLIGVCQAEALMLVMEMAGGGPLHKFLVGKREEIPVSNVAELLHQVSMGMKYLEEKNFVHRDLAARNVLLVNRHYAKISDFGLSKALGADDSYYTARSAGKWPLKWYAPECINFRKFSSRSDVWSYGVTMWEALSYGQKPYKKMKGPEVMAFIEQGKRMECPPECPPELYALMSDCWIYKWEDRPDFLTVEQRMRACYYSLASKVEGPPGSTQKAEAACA

[18] = tested on: Epidermal growth factor receptor (Homo sapiens), P00533 [UNDEFINED MUTATION]; details: Compound concentration 100.0 nM

Chain of Tyrosine-protein kinase receptor UFO (Homo sapiens) (P30530 whole entry): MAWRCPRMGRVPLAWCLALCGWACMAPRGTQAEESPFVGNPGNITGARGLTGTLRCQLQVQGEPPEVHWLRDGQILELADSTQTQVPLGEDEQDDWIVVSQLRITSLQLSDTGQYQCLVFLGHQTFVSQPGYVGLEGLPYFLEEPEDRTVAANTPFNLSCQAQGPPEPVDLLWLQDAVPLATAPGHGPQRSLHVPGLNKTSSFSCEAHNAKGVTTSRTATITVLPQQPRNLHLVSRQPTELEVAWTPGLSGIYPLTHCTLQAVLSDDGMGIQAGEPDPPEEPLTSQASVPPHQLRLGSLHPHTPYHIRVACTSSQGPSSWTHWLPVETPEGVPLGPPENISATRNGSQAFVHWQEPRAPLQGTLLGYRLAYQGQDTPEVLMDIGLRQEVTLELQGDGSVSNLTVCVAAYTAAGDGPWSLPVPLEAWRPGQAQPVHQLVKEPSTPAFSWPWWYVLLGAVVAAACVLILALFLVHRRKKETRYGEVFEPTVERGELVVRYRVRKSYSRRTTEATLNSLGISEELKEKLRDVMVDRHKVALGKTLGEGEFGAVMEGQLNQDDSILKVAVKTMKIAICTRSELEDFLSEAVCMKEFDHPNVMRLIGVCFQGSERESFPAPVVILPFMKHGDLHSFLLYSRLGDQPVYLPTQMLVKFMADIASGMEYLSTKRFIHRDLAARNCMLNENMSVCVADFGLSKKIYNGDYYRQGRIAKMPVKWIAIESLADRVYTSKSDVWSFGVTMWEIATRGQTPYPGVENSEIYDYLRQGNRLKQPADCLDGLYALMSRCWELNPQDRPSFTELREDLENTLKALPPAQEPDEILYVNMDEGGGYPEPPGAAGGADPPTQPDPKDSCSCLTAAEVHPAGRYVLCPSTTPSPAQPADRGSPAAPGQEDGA
Chain of Mitogen-activated protein kinase 14 (Homo sapiens) (Q16539 whole entry): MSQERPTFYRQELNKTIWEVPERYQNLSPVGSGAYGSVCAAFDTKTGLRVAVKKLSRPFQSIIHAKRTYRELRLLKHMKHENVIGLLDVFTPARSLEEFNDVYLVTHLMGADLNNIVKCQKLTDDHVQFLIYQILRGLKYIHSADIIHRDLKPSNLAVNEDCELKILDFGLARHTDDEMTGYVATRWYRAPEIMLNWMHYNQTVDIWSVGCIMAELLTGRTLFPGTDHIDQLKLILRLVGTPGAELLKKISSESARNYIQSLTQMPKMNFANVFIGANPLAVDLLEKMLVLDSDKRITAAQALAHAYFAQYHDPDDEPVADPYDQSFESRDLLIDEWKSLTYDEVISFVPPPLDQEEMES

Cc1c[nH]c2nccc(Oc3c(F)cc(Nc4cc(Cl)nc(N)n4)cc3F)c12 [BAY-549]
inactive: inhibition [1] 21% | inhibition [2] 85% | inhibition [3] 27% | inhibition [4] 87% | inhibition [5] -8% | inhibition [6] 64% | inhibition [7] 13% | inhibition [8] 42% | inhibition [9] 85% | inhibition [10] 8% | inhibition [11] -4% | inhibition [12] -6% | inhibition [13] 84% | inhibition [14] 15% | inhibition [15] 8% | inhibition [16] 2% | inhibition [17] -8%

Cn1cc(Cl)c2c(Oc3c(F)cc(Nc4cc(Cl)nc(N)n4)cc3F)ccnc21 [BAY-4900]
inactive: residual activity [18] 77%
